biological target: hNav1.7 (Homo sapiens, UniProt Q15858); assay: cell-based; type: cell-based; conditions: Table 12; PatchXpress, tonic block; read-out: PX hNav1.7 Tonic IC50
Sequence (Q15858 whole entry): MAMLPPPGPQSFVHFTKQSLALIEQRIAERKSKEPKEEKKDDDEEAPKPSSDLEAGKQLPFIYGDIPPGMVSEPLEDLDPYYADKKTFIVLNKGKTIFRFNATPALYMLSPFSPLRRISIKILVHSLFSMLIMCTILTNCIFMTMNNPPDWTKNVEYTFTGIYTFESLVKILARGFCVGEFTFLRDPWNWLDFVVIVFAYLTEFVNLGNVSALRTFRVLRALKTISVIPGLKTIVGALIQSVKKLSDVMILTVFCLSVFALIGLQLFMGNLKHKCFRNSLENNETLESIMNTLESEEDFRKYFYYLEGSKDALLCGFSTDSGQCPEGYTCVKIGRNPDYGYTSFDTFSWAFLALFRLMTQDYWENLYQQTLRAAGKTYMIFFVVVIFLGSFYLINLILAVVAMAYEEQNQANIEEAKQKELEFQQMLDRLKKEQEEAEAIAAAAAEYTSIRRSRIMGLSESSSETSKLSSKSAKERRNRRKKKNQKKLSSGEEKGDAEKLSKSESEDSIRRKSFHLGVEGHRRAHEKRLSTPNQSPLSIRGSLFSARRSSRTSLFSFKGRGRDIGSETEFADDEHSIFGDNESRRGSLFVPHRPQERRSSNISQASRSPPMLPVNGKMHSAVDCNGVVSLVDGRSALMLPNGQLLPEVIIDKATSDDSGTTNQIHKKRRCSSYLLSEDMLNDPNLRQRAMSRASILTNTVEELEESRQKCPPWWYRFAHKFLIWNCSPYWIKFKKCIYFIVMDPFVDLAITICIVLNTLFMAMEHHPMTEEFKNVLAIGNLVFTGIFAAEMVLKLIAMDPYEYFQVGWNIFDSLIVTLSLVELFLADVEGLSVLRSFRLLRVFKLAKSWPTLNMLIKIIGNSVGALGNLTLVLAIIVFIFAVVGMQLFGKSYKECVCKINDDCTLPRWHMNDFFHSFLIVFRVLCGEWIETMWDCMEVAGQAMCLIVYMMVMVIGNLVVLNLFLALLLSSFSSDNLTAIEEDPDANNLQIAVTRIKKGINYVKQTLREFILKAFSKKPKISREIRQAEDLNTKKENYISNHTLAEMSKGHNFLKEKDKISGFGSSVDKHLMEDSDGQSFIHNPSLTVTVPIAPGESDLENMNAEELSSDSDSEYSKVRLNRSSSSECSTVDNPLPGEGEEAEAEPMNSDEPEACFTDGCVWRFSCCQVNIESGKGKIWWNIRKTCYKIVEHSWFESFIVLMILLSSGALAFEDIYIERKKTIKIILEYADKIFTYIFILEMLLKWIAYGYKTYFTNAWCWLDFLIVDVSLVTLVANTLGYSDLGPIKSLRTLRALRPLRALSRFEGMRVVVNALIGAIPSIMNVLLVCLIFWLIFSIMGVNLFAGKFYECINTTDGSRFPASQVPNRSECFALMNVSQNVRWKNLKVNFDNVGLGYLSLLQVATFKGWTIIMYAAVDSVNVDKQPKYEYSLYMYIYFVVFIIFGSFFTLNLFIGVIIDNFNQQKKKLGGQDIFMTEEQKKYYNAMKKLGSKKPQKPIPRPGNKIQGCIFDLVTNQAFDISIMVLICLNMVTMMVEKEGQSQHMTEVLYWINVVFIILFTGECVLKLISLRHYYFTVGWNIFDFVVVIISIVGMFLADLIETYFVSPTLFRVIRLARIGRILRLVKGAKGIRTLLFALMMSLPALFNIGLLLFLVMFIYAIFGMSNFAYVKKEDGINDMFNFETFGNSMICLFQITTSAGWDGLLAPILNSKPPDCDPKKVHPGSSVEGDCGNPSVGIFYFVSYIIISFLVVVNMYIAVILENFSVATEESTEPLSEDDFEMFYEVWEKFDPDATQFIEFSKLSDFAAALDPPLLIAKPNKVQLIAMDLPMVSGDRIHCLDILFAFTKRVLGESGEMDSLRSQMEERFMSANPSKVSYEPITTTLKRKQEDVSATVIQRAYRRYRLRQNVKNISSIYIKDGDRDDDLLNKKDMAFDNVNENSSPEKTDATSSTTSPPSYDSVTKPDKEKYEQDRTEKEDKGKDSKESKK

First: C#CC[C@H](N)C(=O)N[C@@H](Cc1ccc(O)cc1)C(=O)N[C@H]1CSSC[C@@H]2NC(=O)[C@@H]3CSSC[C@@H](C(=O)N[C@@H](CCCNC(=N)N)C(=O)N[C@@H](CCCCN)C(=O)N[C@@H](CCCC)C(=O)N[C@H](C(N)=O)[C@@H](C)CC)NC(=O)[C@H](Cc4c[nH]c5ccccc45)NC(=O)[C@H](CC(C)C)NC(=O)[C@H](CCCCN)NC(=O)[C@H](CSSC[C@H](NC(=O)[C@H]([C@@H](C)O)NC(=O)[C@H](Cc4c[nH]c5ccccc45)NC(=O)[C@H](CCCC)NC(=O)[C@H](Cc4c[nH]c5ccccc45)NC(=O)[C@H](CCCCN)NC(=O)[C@H](CCC(N)=O)NC1=O)C(=O)N[C@@H](CC(=O)O)C(=O)N[C@@H](CO)C(=O)N[C@@H](CCCCN)C(=O)N[C@@H](CCCNC(=N)N)C(=O)N[C@@H](C)C(=O)N3)NC(=O)[C@H](CCCNC(=N)N)NC(=O)[C@H](CC(C)C)NC(=O)CNC(=O)[C@H](CCC(=O)O)NC2=O [compound 664]
Second: C#CC[C@H](N)C(=O)N[C@@H](Cc1ccc(O)cc1)C(=O)N[C@H]1CSSC[C@@H]2NC(=O)[C@@H]3CSSC[C@@H](C(=O)N[C@@H](CCCNC(=N)N)C(=O)N[C@@H](CCCCN)C(=O)N[C@@H](CCC(=O)O)C(=O)N[C@H](C(N)=O)[C@@H](C)CC)NC(=O)[C@H](Cc4c[nH]c5ccccc45)NC(=O)[C@H](CC(C)C)NC(=O)[C@H](CCCCN)NC(=O)[C@H](CSSC[C@H](NC(=O)[C@H]([C@@H](C)O)NC(=O)[C@H](Cc4c[nH]c5ccccc45)NC(=O)[C@H](CCCC)NC(=O)[C@H](Cc4c[nH]c5ccccc45)NC(=O)[C@H](CCCCN)NC(=O)[C@H](CCC(N)=O)NC1=O)C(=O)N[C@@H](CC(=O)O)C(=O)N[C@@H](CO)C(=O)N[C@@H](CCCCN)C(=O)N[C@@H](CCCNC(=N)N)C(=O)N[C@@H](C)C(=O)N3)NC(=O)[C@H](CCCNC(=N)N)NC(=O)[C@H](C)NC(=O)CNC(=O)[C@H](CCC(=O)O)NC2=O [compound 703]
The IC50 of the first is lower: 0.339 nM for the first, > 1000 nM for the second.

Going from `C#CC[C@H](N)C(=O)N[C@@H](Cc1ccc(O)cc1)C(=O)N[C@H]1CSSC[C@@H]2NC(=O)[C@@H]3CSSC[C@@H](C(=O)N[C@@H](CCCNC(=N)N)C(=O)N[C@@H](CCCCN)C(=O)N[C@H](C(=O)N[C@H](C(N)=O)[C@@H](C)CC)[C@@H](C)CC)NC(=O)[C@H](Cc4c[nH]c5ccccc45)NC(=O)[C@H](CC(C)C)NC(=O)[C@H](CCCCN)NC(=O)[C@H](CSSC[C@H](NC(=O)[C@H]([C@@H](C)O)NC(=O)[C@H](Cc4c[nH]c5ccccc45)NC(=O)[C@H](CCCC)NC(=O)[C@H](Cc4c[nH]c5ccccc45)NC(=O)[C@H](CCCCN)NC(=O)[C@H](CCC(N)=O)NC1=O)C(=O)N[C@@H](CC(=O)O)C(=O)N[C@@H](CO)C(=O)N[C@@H](CCCCN)C(=O)N[C@@H](CCCNC(=N)N)C(=O)N[C@@H](C)C(=O)N3)NC(=O)[C@H](Cc1ccc(O)cc1)NC(=O)[C@H](CC(C)C)NC(=O)CNC(=O)[C@H](CCC(=O)O)NC2=O` [compound 682] to `C#CC[C@H](N)C(=O)N[C@@H](Cc1ccc(O)cc1)C(=O)N[C@H]1CSSC[C@@H]2NC(=O)[C@@H]3CSSC[C@@H](C(=O)N[C@@H](CCCNC(=N)N)C(=O)N[C@@H](CCCCN)C(=O)N[C@@H](CCC(=O)O)C(=O)N[C@H](C(N)=O)[C@@H](C)CC)NC(=O)[C@H](Cc4c[nH]c5ccccc45)NC(=O)[C@H](CC(C)C)NC(=O)[C@H](CCCCN)NC(=O)[C@H](CSSC[C@H](NC(=O)[C@H]([C@@H](C)O)NC(=O)[C@H](Cc4c[nH]c5ccccc45)NC(=O)[C@H](CCCC)NC(=O)[C@H](Cc4c[nH]c5ccccc45)NC(=O)[C@H](CCCCN)NC(=O)[C@H](CCC(N)=O)NC1=O)C(=O)N[C@@H](CC(=O)O)C(=O)N[C@@H](CO)C(=O)N[C@@H](CCCCN)C(=O)N[C@@H](CCCNC(=N)N)C(=O)N[C@@H](C)C(=O)N3)NC(=O)[C@H](Cc1ccccc1)NC(=O)[C@H](CC(C)C)NC(=O)CNC(=O)[C@H](CCC(=O)O)NC2=O` [compound 686], the IC50 rises from 5.98 nM to 10.3 nM (1.7-fold). The first is the more potent here.

`C#CC[C@H](N)C(=O)N[C@@H](Cc1ccc(O)cc1)C(=O)N[C@H]1CSSC[C@@H]2NC(=O)[C@@H]3CSSC[C@@H](C(=O)N[C@@H](CCCNC(=N)N)C(=O)N[C@@H](CCCCN)C(=O)N[C@@H](CCC(=O)O)C(=O)N[C@H](C(N)=O)[C@@H](C)CC)NC(=O)[C@H](Cc4c[nH]c5ccccc45)NC(=O)[C@H](CC(C)C)NC(=O)[C@H](CCCCN)NC(=O)[C@H](CSSC[C@H](NC(=O)[C@H]([C@@H](C)O)NC(=O)[C@H](Cc4c[nH]c5ccccc45)NC(=O)[C@H](CCCC)NC(=O)[C@H](Cc4c[nH]c5ccccc45)NC(=O)[C@H](CCCCN)NC(=O)[C@H](CCC(N)=O)NC1=O)C(=O)N[C@@H](CC(=O)O)C(=O)N[C@@H](CO)C(=O)N[C@@H](CCCCN)C(=O)N[C@@H](CCCNC(=N)N)C(=O)N[C@@H](C)C(=O)N3)NC(=O)[C@H](CCCNC(=N)N)NC(=O)[C@H](CCCCN)NC(=O)CNC(=O)[C@H](CCC(=O)O)NC2=O` [compound 704] and `C#CC[C@H](N)C(=O)N[C@@H](Cc1ccc(O)cc1)C(=O)N[C@H]1CSSC[C@@H]2NC(=O)[C@@H]3CSSC[C@@H](C(=O)N[C@@H](CCCNC(=N)N)C(=O)N[C@@H](CCCCN)C(=O)N[C@@H](CCC(=O)O)C(=O)N[C@H](C(N)=O)[C@@H](C)CC)NC(=O)[C@H](Cc4c[nH]c5ccccc45)NC(=O)[C@H](CC(C)C)NC(=O)[C@H](CCCCN)NC(=O)[C@H](CSSC[C@H](NC(=O)[C@H]([C@@H](C)O)NC(=O)[C@H](Cc4c[nH]c5ccccc45)NC(=O)[C@H](CCCC)NC(=O)[C@H](Cc4c[nH]c5ccccc45)NC(=O)[C@H](CCCCN)NC(=O)[C@H](CCC(N)=O)NC1=O)C(=O)N[C@@H](CC(=O)O)C(=O)N[C@@H](CO)C(=O)N[C@@H](CCCCN)C(=O)N[C@@H](CCCNC(=N)N)C(=O)N[C@@H](C)C(=O)N3)NC(=O)[C@H](CCCNC(=N)N)NC(=O)[C@H](CCCNC(=N)N)NC(=O)CNC(=O)[C@H](CCC(=O)O)NC2=O` [compound 705] cannot be ordered by IC50: > 1000 nM for the first, > 1000 nM for the second.

`C#CC[C@H](N)C(=O)N[C@@H](Cc1ccc(O)cc1)C(=O)N[C@H]1CSSC[C@@H]2NC(=O)[C@@H]3CSSC[C@@H](C(=O)N[C@@H](CCCNC(=N)N)C(=O)N[C@@H](CCCCN)C(=O)N[C@@H](CCC(=O)O)C(=O)N[C@H](C(N)=O)[C@@H](C)CC)NC(=O)[C@H](Cc4c[nH]c5ccccc45)NC(=O)[C@H](CC(C)C)NC(=O)[C@H](CCCCN)NC(=O)[C@H](CSSC[C@H](NC(=O)[C@H]([C@@H](C)O)NC(=O)[C@H](Cc4c[nH]c5ccccc45)NC(=O)[C@H](CCCC)NC(=O)[C@H](Cc4c[nH]c5ccccc45)NC(=O)[C@H](CCCCN)NC(=O)[C@H](CCC(N)=O)NC1=O)C(=O)N[C@@H](CC(=O)O)C(=O)N[C@@H](CO)C(=O)N[C@@H](CCCCN)C(=O)N[C@@H](CCCNC(=N)N)C(=O)N[C@@H](C)C(=O)N3)NC(=O)[C@H](CCCNC(=N)N)NC(=O)[C@H](CC(C)C)NC(=O)[C@H](CCC(=O)O)NC(=O)[C@H](CCC(=O)O)NC2=O` [compound 719] and `C#CC[C@H](N)C(=O)N[C@@H](Cc1ccc(O)cc1)C(=O)N[C@H]1CSSC[C@@H]2NC(=O)[C@@H]3CSSC[C@@H](C(=O)N[C@@H](CCCNC(=N)N)C(=O)N[C@@H](CCC(=O)O)C(=O)N[C@@H](CCC(=O)O)C(=O)N[C@H](C(N)=O)[C@@H](C)CC)NC(=O)[C@H](Cc4c[nH]c5ccccc45)NC(=O)[C@H](CC(C)C)NC(=O)[C@H](CCCCN)NC(=O)[C@H](CSSC[C@H](NC(=O)[C@H]([C@@H](C)O)NC(=O)[C@H](Cc4c[nH]c5ccccc45)NC(=O)[C@H](CCCC)NC(=O)[C@H](Cc4c[nH]c5ccccc45)NC(=O)[C@H](CCCCN)NC(=O)[C@H](CCC(N)=O)NC1=O)C(=O)N[C@@H](CC(=O)O)C(=O)N[C@@H](CO)C(=O)N[C@@H](CCCCN)C(=O)N[C@@H](CCCNC(=N)N)C(=O)N[C@@H](C)C(=O)N3)NC(=O)[C@H](CCCNC(=N)N)NC(=O)[C@H](CC(C)C)NC(=O)CNC(=O)[C@H](CCC(=O)O)NC2=O` [compound 725] cannot be ordered by IC50: > 1000 nM for the first, > 10000 nM for the second.

Compared with `C#CC[C@H](N)C(=O)N[C@@H](Cc1ccc(O)cc1)C(=O)N[C@H]1CSSC[C@@H]2NC(=O)[C@@H]3CSSC[C@@H](C(=O)N[C@@H](CCCNC(=N)N)C(=O)N[C@@H](CCCCN)C(=O)N[C@@H](CCC(=O)O)C(=O)N[C@H](C(=O)N[C@@H](CCC(=O)O)C(N)=O)[C@@H](C)CC)NC(=O)[C@H](Cc4c[nH]c5ccccc45)NC(=O)[C@H](CC(C)C)NC(=O)[C@H](CCCCN)NC(=O)[C@H](CSSC[C@H](NC(=O)[C@H]([C@@H](C)O)NC(=O)[C@H](Cc4c[nH]c5ccccc45)NC(=O)[C@H](CCCC)NC(=O)[C@H](Cc4c[nH]c5ccccc45)NC(=O)[C@H](CCCCN)NC(=O)[C@H](CCC(N)=O)NC1=O)C(=O)N[C@@H](CC(=O)O)C(=O)N[C@@H](CO)C(=O)N[C@@H](CCCCN)C(=O)N[C@@H](CCCNC(=N)N)C(=O)N[C@@H](C)C(=O)N3)NC(=O)[C@H](CCCNC(=N)N)NC(=O)[C@H](CC(C)C)NC(=O)CNC(=O)[C@H](CCC(=O)O)NC2=O` [compound 726], `C#CC[C@@H]1NC(=O)[C@@H]2CSSC[C@H](NC(=O)[C@H](CCC(=O)O)NC(=O)[C@@H](N)CC#N)C(=O)N[C@@H](CCC(N)=O)C(=O)N[C@@H](CCCCN)C(=O)N[C@@H](Cc3c[nH]c4ccccc34)C(=O)N[C@@H](CCCC)C(=O)N[C@@H](Cc3c[nH]c4ccccc34)C(=O)N[C@@H]([C@@H](C)O)C(=O)N[C@H]3CSSC[C@H](NC(=O)[C@H](CCCNC(=N)N)NC(=O)[C@H](CC(C)C)NC(=O)CNC1=O)C(=O)N[C@@H](CCCCN)C(=O)N[C@@H](CC(C)C)C(=O)N[C@@H](Cc1c[nH]c4ccccc14)C(=O)N[C@H](C(=O)N[C@@H](CCCNC(=N)N)C(=O)N[C@@H](CCCCN)C(=O)N[C@@H](CCC(=O)O)C(=O)N[C@H](C(N)=O)[C@@H](C)CC)CSSC[C@H](NC(=O)[C@H](CCC(=O)O)NC(=O)[C@H](CCCNC(=N)N)NC(=O)[C@H](CCC(=O)O)NC(=O)[C@H](CO)NC(=O)[C@H](CC(=O)O)NC3=O)C(=O)N2` [compound 756] is higher in IC50: 32.4 nM for the first, > 1000 nM for the second. The first is the more potent here.
